Measured values from patent US9321756B2, “Azole compounds as PIM inhibitors” (priority 2011, dated 2016).
Where two headings read alike, the source gives them in different places.

Key:
[1] = molecular target: full length recombinant Pim-3 (Homo sapiens (Human), UniProt Q86V86); experiment: Pim enzyme assay (HTRF, phosphorylation of biotinylated-BAD (S112) peptide), Pim-3; type: biochemical; conditions: read-out: Pim3 IC50
In short: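 IC50 values were fitted with a 4-parameter logistic model to percent-of-control HTRF signal (Eu anti-phospho-BAD S112 antibody/streptavidin-APC). Reactions used full-length Pim-3 and biotin-BAD (S112) peptide, ran 1 h 30 min at RT (22 °C) in Hepes pH 7.0 buffer with BSA and DTT, and were stopped by 3 mM EDTA.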

[2] = system: Pim-2 stably transfected U2OS human osteogenic sarcoma line; experiment: Pim cell assay U2OS (phospho-BAD normalized against total BAD), Pim-2 transfected; type: cell-based; conditions: Homo sapiens, read-out: U2OS Pim2_Cell_IC50
Protocol: (§1) The cell lines used in the assay were generated by the stable transfection of either Pim-1 or Pim-2 into the U2OS human osteogenic sarcoma line. The assay for determination of the Pim activity in the engineered U2OS cell lines measures levels of phospho-BAD normalized against total BAD protein levels. It was conducted as follows:
(§2) The adherent cells were dissociated from the flasks using non-enzymatic cell dissociation solution (Sigma #C5914). […] The cells were then incubated overnight at 37° C., 5% CO2.
(§3) In addition to the 10-point dosing curve of the test compound, DMSO alone was run as the high control.
(§4) This dilution in DMSO was then diluted again into cell growth medium. Aliquots (12 μL) of the compound diluted in growth medium were then transferred to the appropriate wells of the 96-well plates containing cells to a final DMSO concentration of 0.3%. The cell plates were then incubated with compound for 29 min at 37° C., 5% CO2.
(§5) The cell plates containing lysis buffer were then immediately stored at −70° C.
(§6) These prepared lysates were then assayed for phospho and total BAD according to the manufacturer's protocols (Meso Scale Diagnostics, Cat#K15103C-3 & #K15103D-3). The plates were read on the MSD Sector Imager 6000, and results were calculated according to the assay protocols ((% Phosphoprotein=((2×Phospho signal)/(Phospho signal+Total signal))×100)).

[3] = molecular target: full length recombinant Pim-2 (Homo sapiens (Human), UniProt Q9P1W9); experiment: Pim enzyme assay (HTRF, phosphorylation of biotinylated-BAD (S112) peptide), Pim-2; type: biochemical; conditions: read-out: Pim2_IC50
[4] = system: Pim-1 stably transfected U2OS human osteogenic sarcoma line; experiment: Pim cell assay U2OS (phospho-BAD normalized against total BAD), Pim-1 transfected; type: cell-based
Protocol: as §1, §2, §3, §4, §5, §6

[5] = molecular target: full length recombinant Pim-1 (Homo sapiens (Human), UniProt P11309); experiment: Pim enzyme assay (HTRF, phosphorylation of biotinylated-BAD (S112) peptide), Pim-1; type: biochemical
[6] = Pim-1 enzyme assay, read-out: Pim_1_IC50
[7] = Homo sapiens, U2OS, read-out: U2OS Pim1_Cell_IC50
[8] = read-out: U2OS Pim1_Cell_IC50, U2OS cells, Pim-1 transfected
[9] = Homo sapiens, U2OS, read-out: U2OS Pim1_Cell_IC50, U2OS cells, Pim-1 transfected

full length recombinant Pim-1, sequence (P11309 whole entry): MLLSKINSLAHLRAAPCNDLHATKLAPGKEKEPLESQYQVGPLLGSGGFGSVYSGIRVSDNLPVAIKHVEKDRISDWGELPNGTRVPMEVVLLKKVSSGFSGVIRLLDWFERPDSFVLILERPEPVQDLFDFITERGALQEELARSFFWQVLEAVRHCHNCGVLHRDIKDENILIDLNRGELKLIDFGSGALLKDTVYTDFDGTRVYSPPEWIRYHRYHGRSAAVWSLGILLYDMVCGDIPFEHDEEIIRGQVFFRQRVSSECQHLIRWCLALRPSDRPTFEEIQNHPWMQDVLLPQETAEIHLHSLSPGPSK
full length recombinant Pim-2, sequence (Q9P1W9 whole entry): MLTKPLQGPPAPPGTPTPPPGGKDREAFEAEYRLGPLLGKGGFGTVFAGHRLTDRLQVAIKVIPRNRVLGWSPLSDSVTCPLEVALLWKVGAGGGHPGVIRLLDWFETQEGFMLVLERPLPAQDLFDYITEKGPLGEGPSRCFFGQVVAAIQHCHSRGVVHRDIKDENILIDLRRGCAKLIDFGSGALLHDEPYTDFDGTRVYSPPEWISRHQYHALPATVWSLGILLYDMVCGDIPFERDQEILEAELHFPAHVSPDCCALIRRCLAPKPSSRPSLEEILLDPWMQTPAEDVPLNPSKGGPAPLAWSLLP

Compound	IC50 ([1]; Pim-3 enzyme assay)	IC50 ([3]; Pim-2 enzyme assay)	IC50 [5, 6]	IC50 [4, 7]	IC50 [4, 9]	other results
CC(C)Nc1cncc(-c2c[nH]c3ccc(-c4nnc(N)s4)cc23)n1 [Example 206, 6-(5-(5-amino-1,3,4-thiadiazol-2-yl)-1H-indol-3-yl)-N-(1-methylethyl)-2-pyrazinamine]	1.15 nM	9.65 nM	–	–	–	IC50 ([2]; U2OS cells, Pim-2 transfected): 945 nM
Nc1nnc(-c2ccc3[nH]cc(-c4cccc(OC5CCCCC5)n4)c3c2)s1 [Example 173, 5-(3-(6-(cyclohexyloxy)-2-pyridinyl)-1H-indol-5-yl)-1,3,4-thiadiazol-2-amine]	–	114 nM	40.5 nM	–	–	IC50 ([4]; Homo sapiens, U2OS cells, Pim-1 transfected, read-out: U2OS Pim1_Cell_IC50): 1020 nM
CNc1nnc(-c2ccc3[nH]cc(-c4cccc(OC5CCC5)n4)c3c2)s1 [Example 232, 5-(3-(6-(cyclobutyloxy)-2-pyridinyl)-1H-indol-5-yl)-N-methyl-1,3,4-thiadiazol-2-amine]	–	104 nM	57 nM	1720 nM	–	IC50 ([2]; U2OS cells, Pim-2 transfected): > 31600 nM
Nc1nnc(-c2ccc3[nH]cc(-c4cccc(N5CCCC5)n4)c3c2)s1 [Example 14, 5-(3-(6-(pyrrolidin-1-yl)pyridin-2-yl)-1H-indol-5-yl)-1,3,4-thiadiazol-2-amine]	–	42 nM	–	–	–	IC50 [4, 8]: 159 nM; IC50 ([5]; read-out: Pim_1_IC50): 11.1 nM
CN1CCCC(Oc2ccnc(-c3c[nH]c4ccc(-c5nnc(N)o5)cc34)n2)C1 (stereo not shown) [Example 112, 5-(3-(4-((1-methyl-3-piperidinyl)oxy)-2-pyrimidinyl)-1H-indol-5-yl)-1,3,4-oxadiazol-2-amine]	–	2.85 nM	5.79 nM	180 nM	–	IC50 ([2]; U2OS cells, Pim-2 transfected): 1160 nM
CC[C@@H]1COCCN1c1nnc(-c2ccc3[nH]cc(-c4cncc(C5CC5)n4)c3c2)o1 (stereo in doubt) [Example 252, 3-(6-cyclopropyl-2-pyrazinyl)-5-(5-(3-ethyl-4-morpholinyl)-1,3,4-oxadiazol-2-yl)-1H-indole]	–	29.8 nM	9.66 nM	310 nM	–	IC50 ([2]; U2OS cells, Pim-2 transfected): > 31600 nM
CNc1nnc(-c2ccc3[nH]cc(-c4cccc(OC(C)C)n4)c3c2)o1 [Example 41, 5-(3-(6-isopropoxypyridin-2-yl)-1H-indol-5-yl)-N-methyl-1,3,4-oxadiazol-2-amine]	–	–	6.48 nM	–	124 nM	IC50 ([2]; U2OS cells, Pim-2 transfected): 1320 nM; IC50 [3]: 19.6 nM
Nc1nnc(-c2ccc3[nH]cc(-c4cncc(-c5ccccc5Cl)n4)c3c2)o1 [Example 117, 5-(3-(6-(2-chlorophenyl)-2-pyrazinyl)-1H-indol-5-yl)-1,3,4-oxadiazol-2-amine]	21.8 nM	57.3 nM	16.5 nM	–	227 nM	–
Nc1ncc(-c2ccc3[nH]cc(-c4cccc(N5CCOCC5)n4)c3c2)s1 [Example 213, 5-(3-(6-(4-morpholinyl)-2-pyridinyl)-1H-indol-5-yl)-1,3-thiazol-2-amine]	44.4 nM	730 nM	–	1520 nM	–	IC50 [5]: 94.9 nM
CC1CCN(c2cccc(-c3c[nH]c4ccc(-c5nnc(N)s5)cc34)n2)CC1 [Example 175, 5-(3-(6-(4-methyl-1-piperidinyl)-2-pyridinyl)-1H-indol-5-yl)-1,3,4-thiadiazol-2-amine]	17.7 nM	117 nM	41.4 nM	682 nM	–	–
c1cc2[nH]cc(-c3cncc(C4CC4)n3)c2cc1-c1nnc(N2CCCC2)o1 [Example 37, 2-(3-(6-Cyclopropylpyrazin-2-yl)-1H-indol-5-yl)-5-(pyrrolidin-1-yl)-1,3,4-oxadiazole 2,2,2-trifluoroacetate]	–	–	9.14 nM	–	237 nM	IC50 [1]: 6.78 nM; IC50 [3]: 80.1 nM
Fc1ccccc1-c1c[nH]c2ccc(-c3nnc(NCc4cccc5[nH]ccc45)s3)cc12 [Example 143, 5-(3-(2-fluorophenyl)-1H-indol-5-yl)-N-(1H-indol-4-ylmethyl)-1,3,4-thiadiazol-2-amine]	84.5 nM	3020 nM	145 nM	5200 nM	–	–
Nc1nnc(-c2ccc3[nH]cc(-c4cncc(NC5CC5)n4)c3c2)s1 [Example 15, 5-(3-(6-(cyclopropylamino)pyrazin-2-yl)-1H-indol-5-yl)-1,3,4-thiadiazol-2-amine]	–	20.1 nM	–	–	108 nM	IC50 ([5]; read-out: Pim_1_IC50): 4.57 nM
c1cc2[nH]cc(-c3cncc(C4CC4)n3)c2cc1-c1nnc(N2CCOCC2)o1 [Example 245, 3-(6-cyclopropyl-2-pyrazinyl)-5-(5-(4-morpholinyl)-1,3,4-oxadiazol-2-yl)-1H-indole]	–	–	20.3 nM	–	217 nM	IC50 ([2]; U2OS cells, Pim-2 transfected): > 31600 nM
Nc1nnc(-c2ccc3[nH]cc(-c4cccc(NC5CCCC5)n4)c3c2)s1 [Example 16, 5-(3-(6-(cyclopentylamino)pyridin-2-yl)-1H-indol-5-yl)-1,3,4-thiadiazol-2-amine 2,2,2-trifluoroacetate]	–	–	–	–	–	IC50 ([2]; U2OS): 3090 nM; IC50 [3]: 21.1 nM
Fc1ccccc1-c1c[nH]c2ccc(-c3nnc(N[C@H]4CCCNC4)s3)cc12 (stereo in doubt) [Example 139, N-(5-(3-(2-fluorophenyl)-1H-indol-5-yl)-1,3,4-thiadiazol-2-yl)-3-piperidinamine]	18.4 nM	106 nM	29.3 nM	–	578 nM	–
Nc1nnc(-c2ccc3[nH]cc(-c4cccc(N5CCCCC5=O)n4)c3c2)s1 [Example 181, 1-(6-(5-(5-amino-1,3,4-thiadiazol-2-yl)-1H-indol-3-yl)-2-pyridinyl)-2-piperidinone]	47 nM	223 nM	98.1 nM	2260 nM	–	–
Fc1ccccc1-c1c[nH]c2ccc(-c3nnc(NCC[C@H]4CCCCN4)s3)cc12 (stereo in doubt) [Example 141, 5-(3-(2-fluorophenyl)-1H-indol-5-yl)-N-(2-(2-piperidinyl)ethyl)-1,3,4-thiadiazol-2-amine]	49.6 nM	480 nM	74 nM	1110 nM	–	–
CN1CCN(c2cccc(-c3c[nH]c4ccc(-c5nnc(N)s5)cc34)n2)CC1=O [Example 30, 4-(6-(5-(5-amino-1,3,4-thiadiazol-2-yl)-1H-indol-3-yl)pyridin-2-yl)-1-methylpiperazin-2-one]	2.5 nM	52.7 nM	–	–	1170 nM	IC50 ([5]; read-out: Pim_1_IC50): 13.3 nM
N[C@H]1CCN(c2nnc(-c3ccc4[nH]cc(-c5ccccc5F)c4c3)s2)C1 (stereo in doubt) [Example 140, 1-(5-(3-(2-fluorophenyl)-1H-indol-5-yl)-1,3,4-thiadiazol-2-yl)-3-pyrrolidinamine]	13.4 nM	244 nM	73.2 nM	871 nM	–	–
NCCCNc1nnc(-c2ccc3[nH]cc(-c4ccccc4F)c3c2)s1 [Example 12, N-(5-(3-(2-fluorophenyl)-1H-indol-5-yl)-1,3,4-thiadiazol-2-yl)propane-1,3-diamine]	13.7 nM	155 nM	51.6 nM	3170 nM	–	–
C[C@@H]1CCCN(c2cccc(-c3c[nH]c4ccc(-c5nnc(N)s5)cc34)n2)C1 (stereo in doubt) [Example 174, 5-(3-(6-(3-methyl-1-piperidinyl)-2-pyridinyl)-1H-indol-5-yl)-1,3,4-thiadiazol-2-amine]	23.6 nM	159 nM	41 nM	998 nM	–	–
CN1CCN(c2cnc(-c3c[nH]c4ccc(-c5nnc(N)s5)cc34)cn2)CC1 [Example 178, 5-(3-(5-(4-methyl-1-piperazinyl)-2-pyrazinyl)-1H-indol-5-yl)-1,3,4-thiadiazol-2-amine]	54.1 nM	459 nM	61.3 nM	–	2250 nM	–
CC(C)Oc1cc(F)cc(-c2c[nH]c3ccc(-c4nnc(N)o4)cc23)c1 [Example 79, 5-(3-(3-fluoro-5-(1-methylethoxy)phenyl)-1H-indol-5-yl)-1,3,4-oxadiazol-2-amine]	85.8 nM	185 nM	154 nM	–	–	–
Nc1cncc(-c2c[nH]c3ccc(-c4nnc(N)s4)cc23)n1 [Example 210, 6-(5-(5-amino-1,3,4-thiadiazol-2-yl)-1H-indol-3-yl)-2-pyrazinamine]	28.7 nM	192 nM	142 nM	–	–	–
Nc1nnc(-c2ccc3[nH]cc(-c4cccc(N5CCCC5)n4)c3c2)s1 [Example 176, 5-(3-(6-(1-pyrrolidinyl)-2-pyridinyl)-1H-indol-5-yl)-1,3,4-thiadiazol-2-amine]	–	104 nM	–	–	–	IC50 [4, 8]: 526 nM; IC50 ([5]; read-out: Pim_1_IC50): 43.5 nM
